Experimental data as given in US20060159772A1, “Fungicidal compositions” (priority 2002, published 2006).
Where two headings read alike, the source gives them in different places.

How the values were obtained:
[1] = system: Plasmopara viticola; experiment: Greenhouse test against downy mildew, preventive application to vine leaves (Example 4); assay type: in vivo, Plasmopara viticola on vine plants, cv. Dolcetto; details: for pest or weed control at 0.2 ppm: 0.20 ppm
Description: Determination of the fungicidal efficacy against downy mildew (Plasmopara viticola) in preventive application to vine leaves in greenhouse.
Leaves of vine plants, cv. Dolcetto, grown up in pots in conditioned environment at 25° C. and 60% relative humidity, were sprayed on both sides with hydroacetonic solutions (20% of acetone by volume) of the compounds under testing, the potassium phosphite (K2HPO3+KH2PO3) aqueous solutions and the mixtures of both components.
Seven days after the treatments, the leaves of treated plants and untreated controls were sprayed on the lower surface with aqueous suspension of Plasmopara viticola conidia (200.000 conidia/ml); after beeing kept for 24 h at 21° C. in environment moist at saturation, the plants were transfered to other conditioned environment at 70% relative humidity and 21° C. for 7 days.
After this period the degree of infection was evaluated and the activity of the compounds tested was expressed as % of disease control in comparison to the untreated controls: 100=healty plant; 0=completely infected plant.
In tables 6-20 are reported the results obtained for the compounds tested alone and in mixture with potassium phosphite at the indicated dosages. When the % disease control value found is higher than the value expected applying the Limpel formula (see Example 3), a synergic effect is verified.

[2] = system: Phytophthora infestans; assay type: in vivo, Phytophthora infestans on potato plants, Miura variety; details: 1400 g/hl active principle; average of 3 tests on potato plants in Great Britain, 2002

CO/C=C(/C(=O)OC)c1ccccc1Oc1cc(Oc2ccccc2C#N)ncn1 [azoxystrobin]
% Disease Control: found ([1]; 0.11 ppm, Table 11): 69%

CC(C)OC(=O)N[C@H](C(=O)N[C@H](C)c1nc2ccc(F)cc2s1)C(C)C [benthiavalicarb]
pest or weed control at 0.25 ppm ([1]; Plasmopara viticola, topical, 168 h, 0.25 ppm, Table 10, read-out: % Disease Control: found): 47%

N#Cc1c(Cl)c(Cl)c(Cl)c(C#N)c1Cl [chlorothalonil, 1,3-dicyano-2,4,5,6-tetrachlorobenzene]
pest or weed control at 7.5 ppm ([1]; Plasmopara viticola, topical, 168 h, 7.5 ppm, Table 16, read-out: % Disease Control: found): 46%

Cc1ccc(-c2c(Cl)nc(C#N)n2S(=O)(=O)N(C)C)cc1 [cyazofamide, 2-cyano-4-chloro-′5-(4-methylphenyl)-1-(N,N-dimethylaminosulfamoyl)-imidazole]
% Disease Control: found ([1]; 15 ppm, Table 14): 68%

CCNC(=O)NC(=O)C(C#N)=NOC [cymoxanil, 1-(2-cyano-2-methoxyimino-acetyl)-3-ethyl urea]
pest or weed control at 30 ppm ([1]; Plasmopara viticola, topical, 168 h, 30 ppm, Table 6, read-out: % Disease Control: found): 59%

COc1ccc(C(=CC(=O)N2CCOCC2)c2ccc(Cl)cc2)cc1OC [dimethomorph, (E,Z)-4-[3-(4-chlorophenyl)-3-(3,4-dimethoxyphenyl)acryloyl]-morpholine]
pest or weed control at 0.45 ppm ([1]; Plasmopara viticola, topical, 168 h, 0.45 ppm, Table 15, read-out: % Disease Control: found): 73%

CC1(c2ccc(Oc3ccccc3)cc2)OC(=O)N(Nc2ccccc2)C1=O (centres unmarked) [famoxadone, 5-methyl-5-(4-phenoxyphenyl)-3-(phenylamino)oxazolidin-2,4-dione]
pest or weed control at 0.45 ppm ([1]; Plasmopara viticola, topical, 168 h, 0.45 ppm, Table 12, read-out: % Disease Control: found): 56%

O=[N+]([O-])c1cc(C(F)(F)F)c(Cl)c([N+](=O)[O-])c1Nc1ncc(C(F)(F)F)cc1Cl [fluazinam, 3-chloro-N-(3-chloro-5-trifluoromethyl-2-pyridyl)-α,α,α-trifluoro-2,6-dinitro-p-toluidine]
pest or weed control at 20 ppm ([1]; Plasmopara viticola, topical, 168 h, 20 ppm, Table 20, read-out: % Disease Control: found): 48%

Cc1ccc(C(C)NC(=O)C(NC(=O)OC(C)C)C(C)C)cc1 (centres unmarked) [iprovalicarb, O-(1-methyl-ethyl)-N-[2-methyl-1-[[[1-(4-methylphenyl)-ethyl]amino]carbonyl]propyl]carbamate]
% Disease Control: found ([1]; 0.45 ppm, Table 9): 50%

COCC(=O)N(c1c(C)cccc1C)[C@H](C)C(=O)OC [mefenoxam, methyl N-(2-methoxyacetyl)-N-2,6-xylyl-R-alaninate]
pest or weed control at 0.1 ppm ([1]; Plasmopara viticola, topical, 168 h, 0.10 ppm, Table 8, read-out: % Disease Control: found): 48%

COCC(=O)N(c1c(C)cccc1C)C(C)C(=O)OC (centres unmarked) [metalaxyl, methyl N-(2-methoxyacetyl)-N-2,6-xylyl-RS-alaninate]
pest or weed control at 0.2 ppm ([1]; Plasmopara viticola, topical, 168 h, Table 7, read-out: % Disease Control: found): 45%

COCC(=O)N(c1c(C)cccc1C)N1CCOC1=O [oxadixyl, 2-methoxy-N-(2-oxo-1,3-oxazolidin-3-yl)aceto-2′,6′-xylidide]
pest or weed control at 0.2 ppm ([1]; Plasmopara viticola, topical, 168 h, Table 18, read-out: % Disease Control: found): 49%

potassium phosphite (K2HPO3+KH2PO3)
% disease control leaves [2]: 23%
% Disease Control: found ([1]; 60 ppm, inoculation 7 days after treatment): 35%
